Test results from US10570122B2, “Compounds with anti-tumoral activity” (AB Science, priority 2015, dated 2020).

Legend:
HEP2 = assay: CellTiter-Blue cell-based survival/proliferation assay, HEP2; conditions: Homo sapiens, HEp-2; HEP2 head & neck tumor cell line, 48 h
Procedure: (§1) Cell-Based Proliferation Screening of Compounds
(§2) CellTiter-Blue cell-based survival/proliferation assay (Promega G8080) was performed on tumor cell lines. A total of 1·10^4 cells/well/50 μl were seeded in a 96-wells plate. Treatment was initiated by addition of a 2× drug solution of 1/10 serial dilutions ranging from 0 to 10 μM. Cells were grown for 48 h at 37° C. and then incubated with 10 μl/well of Promega CellTiter-Bleue reagent for 4 h at 37° C. The amount of resorufin dye formed was quantified by its fluorescence emission at 590 nm using a scanning multiwell spectrophotometer (OPTIMA, BMG labtech, France). A blank well without cells was used as a background control for the spectrophotometer.

CALU6 = assay: CellTiter-Blue cell-based survival/proliferation assay, CALU6; conditions: Homo sapiens, Calu-6; CALU6 lung tumor cell line, 48 h
Procedure: as §1, §2

PANC1 = assay: CellTiter-Blue cell-based survival/proliferation assay, PANC1; conditions: Homo sapiens, PANC-1; PANC_1 pancreas tumor cell line, 48 h
Procedure: as §1, §2

BT20 = assay: CellTiter-Blue cell-based survival/proliferation assay, BT20; conditions: Homo sapiens, BT-20; BT20 breast tumor cell line, 48 h
Procedure: as §1, §2

OPM2 = assay: CellTiter-Blue cell-based survival/proliferation assay, OPM2; conditions: Homo sapiens, OPM-2, Myeloma cell line OPM2, 48 h, read-out: Anti-tumoral activity (measured IC50) OPM2
Procedure: as §1, §2

H1299 = assay: CellTiter-Blue cell-based survival/proliferation assay, H1299; conditions: Homo sapiens, NCI-H1299; H1299 lung tumor cell line, 48 h
Procedure: as §1, §2

ACHN = assay: CellTiter-Blue cell-based survival/proliferation assay, ACHN; conditions: Homo sapiens; ACHN kidney tumor cell line, 48 h
Procedure: as §1, §2

AGS = assay: CellTiter-Blue cell-based survival/proliferation assay, AGS; conditions: Homo sapiens; AGS stomach tumor cell line, 48 h
Procedure: as §1, §2

HCT116 = assay: CellTiter-Blue cell-based survival/proliferation assay, HCT116; conditions: Homo sapiens, HCT-116; HCT116 colorectal tumor cell line, 48 h
Procedure: as §1, §2

A549 = assay: CellTiter-Blue cell-based survival/proliferation assay, A549; conditions: Homo sapiens; A549 lung tumor cell line, 48 h
Procedure: as §1, §2

SW579 = assay: CellTiter-Blue cell-based survival/proliferation assay, SW579; conditions: Homo sapiens; SW579 head & neck tumor cell line, 48 h
Procedure: as §1, §2

HEPG2 = assay: CellTiter-Blue cell-based survival/proliferation assay, HEPG2; conditions: Homo sapiens; HEPG2 liver tumor cell line, 48 h
Procedure: as §1, §2

[1] = test system: panel of about 34 human tumor cell lines; assay: Cell-based proliferation screening on panel of tumor cell lines; conditions: solid tumor cell line, cell line unknown, 48 h, read-out: IC50, solid tumor cell line of column 6 (last section of Table 3)
Procedure: Compounds of formula (I) were tested against a panel of about 34 human tumor cell lines representing 17 cancer type, namely leukemia (represented by 1 cell line), lymphoma (4 cell lines), myeloma (1 cell line), colorectal (2 cell lines), head and neck (3 cell lines), lung (3 cell lines), melanoma (2 cell lines), pancreas (2 cell lines), prostate (2 cell lines), ovary (2 cell lines) breast (2 cell lines), kidney (2 cell lines), stomach (2 cell lines), liver (2 cell lines), glioblastoma (2 cell lines), osteosarcoma (1 cell line), Ewing Sarcoma (1 cell line).
as §1, §2

BXPC3 = assay: CellTiter-Blue cell-based survival/proliferation assay, BXPC3; conditions: Homo sapiens, BXPC-3; BXPC3 pancreas tumor cell line, 48 h
Procedure: as §1, §2

DLD1 = assay: CellTiter-Blue cell-based survival/proliferation assay, DLD1; conditions: Homo sapiens, DLD-1; DLD_1 colorectal tumor cell line, 48 h
Procedure: as §1, §2

A498 = assay: CellTiter-Blue cell-based survival/proliferation assay, A498; conditions: Homo sapiens; A498 kidney tumor cell line, 48 h
Procedure: as §1, §2

TOV112D = assay: CellTiter-Blue cell-based survival/proliferation assay, TOV112D; conditions: Homo sapiens; TOV112D ovary tumor cell line, 48 h
Procedure: as §1, §2

DU145 = assay: CellTiter-Blue cell-based survival/proliferation assay, DU145; conditions: Homo sapiens, DU-145; DU145 prostate tumor cell line, 48 h
Procedure: as §1, §2

CLS354 = assay: CellTiter-Blue cell-based survival/proliferation assay, CLS354; conditions: Homo sapiens, CLS-354; CLS354_4 head & neck tumor cell line, 48 h
Procedure: as §1, §2

PC3 = assay: CellTiter-Blue cell-based survival/proliferation assay, PC3; conditions: Homo sapiens, PC-3; PC3 prostate tumor cell line, 48 h
Procedure: as §1, §2

HGC27 = assay: CellTiter-Blue cell-based survival/proliferation assay, HGC27; conditions: Homo sapiens, HGC-27; HGC27 stomach tumor cell line, 48 h
Procedure: as §1, §2

HL60 = assay: CellTiter-Blue cell-based survival/proliferation assay, HL60; conditions: Homo sapiens, HL-60, Leukemia cell line HL60, 48 h, read-out: Anti-tumoral activity (measured IC50) HL60
Procedure: as §1, §2

PLCPRF5 = assay: CellTiter-Blue cell-based survival/proliferation assay, PLCPRF5; conditions: Homo sapiens, PLC-PRF-5; PLC_PRF5 liver tumor cell line, 48 h
Procedure: as §1, §2

MESSA = assay: CellTiter-Blue cell-based survival/proliferation assay, MESSA; conditions: Homo sapiens, MES-SA; MESSA ovary tumor cell line, 48 h
Procedure: as §1, §2

MDAMB231 = assay: CellTiter-Blue cell-based survival/proliferation assay, MDAMB231; conditions: Homo sapiens, MDA-MB-231; MDAMB231 breast tumor cell line, 48 h
Procedure: as §1, §2

Row | IC50 [1] [nM] | SMILES | IC50 (HEP2) [nM] | IC50 (CALU6) [nM] | IC50 (PANC1) [nM] | IC50 (BT20) [nM] | IC50 (OPM2) [nM] | IC50 (H1299) [nM] | IC50 (ACHN) [nM] | IC50 (AGS) [nM] | IC50 (HCT116) [nM] | IC50 (A549) [nM] | IC50 (SW579) [nM] | IC50 (HEPG2) [nM] | IC50 (BXPC3) [nM] | IC50 (DLD1) [nM] | IC50 (A498) [nM] | IC50 (TOV112D) [nM] | IC50 (DU145) [nM] | IC50 (CLS354) [nM] | IC50 (PC3) [nM] | further results
1 | > 1000 | CCOCc1ccc(C)c(Nc2ncc(-c3ccc(N4CCN(CCOC)C4=O)cc3)o2)c1 [Example 054, 1-(4-(2-((5-(ethoxymethyl)-2-methylphenyl)amino)oxazol-5-yl)phenyl)-3-(2-methoxyethyl)imidazolidin-2-one] | > 1000 | > 1000 | > 1000 | > 1000 | > 1000 | > 1000 | > 1000 | > 1000 | > 1000 | > 1000 | > 1000 | > 1000 | > 1000 | > 1000 | > 1000 | > 1000 | > 1000 | > 1000 | > 1000 | IC50 (HGC27): > 1000 nM; IC50 (HL60): > 1000 nM; IC50 (PLCPRF5): > 1000 nM; IC50 (MESSA): > 1000 nM; IC50 (MDAMB231): > 1000 nM
2 | 100 to 500 | CCOCc1ccc(C)c(Nc2ncc(-c3ccc(N4C(=O)NC[C@H]4C)nc3)o2)c1 [Example 058, (R)-1-(5-(2-((5-(ethoxymethyl)-2-methylphenyl)amino)oxazol-5-yl)pyridin-2-yl)-5-methylimidazolidin-2-one] | 100 to 500 | > 1000 | > 1000 | > 1000 | ≤ 100 | > 1000 | > 1000 | > 1000 | > 1000 | > 1000 | > 1000 | > 1000 | > 1000 | > 1000 | > 1000 | ≤ 100 | > 1000 | ≤ 100 | ≤ 100 | IC50 (HGC27): > 1000 nM; IC50 (HL60): ≤ 100 nM; IC50 (PLCPRF5): > 1000 nM; IC50 (MESSA): > 1000 nM; IC50 (MDAMB231): > 1000 nM
3 | > 1000 | CCOCc1ccc(C)c(Nc2ncc(-c3ccc(-n4c(C)n[nH]c4=O)cc3)o2)c1 [Example 052, 4-(4-(2-((5-(ethoxymethyl)-2-methylphenyl)amino)oxazol-5-yl)phenyl)-5-methyl-2,4-dihydro-3H-1,2,4-triazol-3-one] | > 1000 | > 1000 | > 1000 | > 1000 | > 1000 | > 1000 | > 1000 | > 1000 | > 1000 | > 1000 | > 1000 | > 1000 | > 1000 | > 1000 | > 1000 | > 1000 | > 1000 | > 1000 | > 1000 | IC50 (HGC27): > 1000 nM; IC50 (HL60): > 1000 nM; IC50 (PLCPRF5): > 1000 nM; IC50 (MESSA): > 1000 nM; IC50 (MDAMB231): > 1000 nM
